The nature of data set [1]: Solubility in aqueous buffer. Format: physicochemical. The settings on record: pH 7.4, aqueous buffer.
The nature of data set [2]: Analytical RP-HPLC retention as a measure of hydrophobicity. Format: physicochemical. The settings on record: longer retention time compared to native EETI-II, Fig. 1.

For `CCCCCCCCCCCCCCCC(=O)NCCCC[C@H](N)C(=O)NCC(=O)N[C@@H](CO)C(=O)NCC(=O)N[C@@H](CO)C(=O)NCC(=O)N[C@H]1CSSC[C@@H]2NC(=O)CNC(=O)[C@H](C)NC(=O)[C@H](CC(C)C)NC(=O)[C@@H]3CSSC[C@@H](C(=O)NCC(=O)O)NC(=O)[C@H](Cc4ccccc4)NC(=O)CNC(=O)[C@H](CC(N)=O)NC(=O)[C@@H]4CCCN4C(=O)CNC(=O)[C@H](CSSC[C@H](NC(=O)[C@H](CCCNC(=N)N)NC(=O)[C@H](CCSC)NC(=O)[C@H](CC(C)C)NC(=O)[C@H]([C@@H](C)CC)NC(=O)[C@H](CCCNC(=N)N)NC(=O)[C@@H]4CCCN4C1=O)C(=O)N[C@@H](CCCCN)C(=O)N[C@@H](CCC(N)=O)C(=O)N[C@@H](CC(=O)O)C(=O)N[C@@H](CO)C(=O)N[C@@H](CC(=O)O)C(=O)N3)NC(=O)[C@H](C(C)C)NC2=O` [CKP-C16, EETI-II-C16], the solubility (usually the concentration that dissolves in the medium under given conditions) in data set [1] is more than 500 µM. Also, the “hydrophobicity by analytical RP-HPLC retention time (in words)” value in data set [2] is “more hydrophobic than EETI-II (CKP)”.

Values taken from publication PMC9419673 (Nanoscale Advances, 2021).
